Earlier results on 1 molecule are cited in patent publication US10709668B2, “Sprinkle formulations of acamprosate” (priority 2015, dated 2020).

The conditions of data set [1]: subjects with autism and fragile x syndrome (WO 2010093859).
For data set [2] the following is noted: humans.

Consider `CC(=O)NCCCS(=O)(=O)O` [acamprosate, 3-(Acetylamino)propylsulfonic acid], for which, in data set [1], the “Improvement in primary outcomes (CGI-I, CGI-S)” value is recorded as “marked improvements”. For the same molecule, in data set [2], the Oral bioavailability result is “about 11%”.
